The values below come from US20220049283A1, “Method of detecting SARS-CoV-2 cleavage targeted proprotein convertase and facilitated protease activity” (priority 2020, published 2022).

The experiment deals with SARS-CoV-2 specific substrate (S1/S2 boundary peptide). The experiment is classed as biochemical. As to conditions: substrate 10 ng/well, 25 min incubation, OD 450 nm, FIG. 4.

Consider trypsin, for which the “lowest amount of enzyme from which cleavage activity can be detected” value is recorded as 10 ng.
